Measured values from US11517556B2, “Composition for BKCa channel activation” (GWANGJU INSTITUTE OF SCIENCE AND TECHNOLOGY, priority 2016, dated 2022).

Tests used:
[1] = biological target: T1, mutant BKCa channel (G803D/N806K) (Rattus norvegicus, UniProt Q62976, G803D/N806K); assay: Cell-based TI+ fluorescence (FluxOR) assay in AD-293 cells
T1 construct: expressed in transfected cells
Description: AD-293 cells (Lee et al., 2013), as a modified HEK293 cell for expressing a mutant BKCa channel, were placed in DMEM (Dulbecco's Modified Eagle's medium) supplemented with 10% fetal bovine serum and 1 mg/ml geneticin (Gibco) as an antibiotic. The cells were cultured under a humidified condition of 5% CO2 and 37° C.
AD-293 cells stably expressing the mutant BKCa channel (G803D/N806K) were used for cell-based assays (Lee et al., 2013). Approximately 20,000 cells/well were inoculated on a black-wall assay plate (Corning Incorporated) coated with poly-D-lysine (Sigma-Aldrich), which is 96-well clear-bottom. A FluxOR™ […] (Invitrogen) was used for initial screening of compound libraries, and for further assay of candidate compounds. Experiments were performed according to the manufacturer's following guidelines: growth medium was replaced with 80 μl/well of loading buffer containing FluxOR™ fluorescent dye, and incubation was carried out for 1 hour under a light-free condition. After the incubation, the loading buffer was replaced with 100 μl/well of assay buffer containing various concentrations of compounds of interest, followed by incubation for 20 minutes to 30 minutes. DMSO (1%) was vehicle and the vehicle was used for all test compounds. CTBIC (Cormemis et al. 2005; Lee et al. 2012), previously identified as an activator of the BKCa channel, was used as a positive control. For fluorescence measurements, synergy TM H1 hybrid multi-mode microplate reader (BioTek Instrument Inc., Winnoski, Vt.) and Cen5 software was used in initial screening. For additional assays, Flexstation 3 multi-mode microplate reader (Molecular Devices) and SoftMax®Pro software were used, respectively. A fluorescence signal was obtained at an excitation wavelength of 485 nm and an emission wavelength of 528 nm. Membrane polarization was induced by a stimulus buffer containing thallium ion. The fluorescence signal was measured under two conditions: every 10 seconds for 2 minutes before treating the stimulation buffer and then every 10 seconds for 3 minutes after addition of stimulation buffer for synergy H1, and every 2 seconds for 20 seconds before stimulus buffer treatment, and then every 2 seconds for 160 seconds after adding the stimulus buffer for FlexStation 3.
A fluorescence signal change was measured based on a relative fluorescence unit (RFU) or F/F0 where F0 is ta minimum fluorescence value of each fluorescence trace. To quantitatively compare activation effects of kurarinone and its derivatives, an initial fluorescence increase was calculated using first three points after treatment with the stimulation buffer, and a linear slope was predicted using OriginPro 9.1 (OriginLab Corp., Northampton, Mass.).

[2] = biological target: T2, rat BKCa channel α-subunit (rSlo1) (Rattus norvegicus, UniProt Q62976); assay: Macroscopic current patch-clamp recording, Xenopus oocyte excised patches; assay type: cell-based
T2 construct: expressed in transfected cells; host or cells: Xenopus laevis oocytes injected with cRNA (vector pNBC1.0)
Description: Xenopus laevis oocytes heterologously expressing a BKCa channel α-subunit (Slo1) were used for electrophysiological recording. Subcloning and functional expression of the rat BKCa channel α-subunit using the oocyte expression vector pNBC1.0 has been reported (Ha et al., 2000). Sequence information of Slo1 used in the present disclosure is published in GenBank as expression number AF135265. Plasmid DNA was linearized using Notl restriction enzyme, and complementary RNA (cRNA) was synthesized using T7 RNA polymerase in the presence of nucleoside triphosphate and cap analog m7G(5′)ppp(5′)G from a linear form of DNA using mMessage Machine (Ambion).
Oocytes from stages V to VI were surgically removed from ovarian lobes of anesthetized X. laevis (Xenopus I, Dexter, Mich.). The removed oocytes were transferred to a Ca^2+-free oocyte ringer's (OR) culture medium (86 mM NaCl, 1.5 mM KCl, 2 mM MgCl2 and 10 mM HEPES, pH 7.6). The oocytes were cultured in Ca^2+-free OR medium containing 3 mg/ml collagenase (Worthington Biochemicals) for 1 hour and 30 minutes to 2 hours. This removed the follicular cell layer of the oocyte. Then, the oocytes were widely washed with Ca^2+-free OR culture medium and ND-96 medium (96 mM NaCl, 2 mM KCl, 1.8 mM CaCl2, 1 mM MgCl2, 5 mM HEPES, and 50 µg/ml gentamycin, pH 7.6). The washed oocytes were stored at 18° C. in ND-96 medium. Before oocyte was used, the oocyte was stabilized for at least one day. After the stabilization, approximately 50 ng of synthesized cRNA in 50 nl of nuclease-free water was injected into each oocyte for macroscopic current recording, and approximately 1 ng of synthesized cRNA in 50 nl of nuclease-free water was injected into each oocyte for single-channel recording using a micro-dispenser (Drummond Scientific, Broomall, Pa.). The cRNA-injected oocytes were cultured in ND-96 medium for 1 to 3 days at 18 degree C. Immediately prior to the patch-clamp experiment, the oocyte's vitelline membrane was manually removed with fine forceps.
[…] Patch pipettes were prepared from borosilicate and glass (WPI, Sarasota, Fla.). The pipettes were fire-polished with a resistance of 2 to 4 MΩ for patch recording. For single-channel recording, the patch pipettes were fire-polished with 4 to 8 MΩ resistors. To reduce electrical noise, the pipettes were coated with beeswax. Using an Axopatch 200B amplifier (Axon Instruments), the channel current was amplified. Then, the current was low-pass filtered at 1 kHz using a four-pole Bessel filter. Then, the current was digitized at a rate of 10 points/ms using a Digidata 1200A (Axon Instruments).
A single BKCa channel was readily activated by a membrane potential simply transferred at 100 mV at a high concentration of intracellular Ca^2+. For the single-channel assay, the switching between the closed and open conditions was determined by setting a potency at a half of a unitary current amplitude. To determine the single-channel conductance of the expressed channel, the average amplitude of the channel current was obtained from the histograms fitted with Gaussian distributions. An average current for a membrane-pass voltage is shown. A slope-conductance values were obtained from linear regression. The macroscopic current of the expressed BKCa channel was activated by a voltage-clamp pulse delivered from a holding potential of −100 mV at 10 mV increment to a membrane potential of typically −80 to 200 mV, A dwell-time of recorded open and close events for the single BKCa channel was analyzed using a linear histogram method. The dwell-time distribution was fitted into a single index using simplex-least-squares fitting methods (Clampfit, Axon Instruments). A peak in the dwell-time distribution was located at a time-constant of an exponential component.
To prevent activation of endogenous calcium-activated chloride channels, solutions for single and macroscopic channel recording contained gluconate as a non-permeant negative ion. […]

[3] = 5 μM, outside-out, 3 μM intracellular Ca2+, double-exponential fit
[4] = after removal of 5 μM kurarinone, outside-out

T1 sequence (Q62976 whole entry G803D/N806K): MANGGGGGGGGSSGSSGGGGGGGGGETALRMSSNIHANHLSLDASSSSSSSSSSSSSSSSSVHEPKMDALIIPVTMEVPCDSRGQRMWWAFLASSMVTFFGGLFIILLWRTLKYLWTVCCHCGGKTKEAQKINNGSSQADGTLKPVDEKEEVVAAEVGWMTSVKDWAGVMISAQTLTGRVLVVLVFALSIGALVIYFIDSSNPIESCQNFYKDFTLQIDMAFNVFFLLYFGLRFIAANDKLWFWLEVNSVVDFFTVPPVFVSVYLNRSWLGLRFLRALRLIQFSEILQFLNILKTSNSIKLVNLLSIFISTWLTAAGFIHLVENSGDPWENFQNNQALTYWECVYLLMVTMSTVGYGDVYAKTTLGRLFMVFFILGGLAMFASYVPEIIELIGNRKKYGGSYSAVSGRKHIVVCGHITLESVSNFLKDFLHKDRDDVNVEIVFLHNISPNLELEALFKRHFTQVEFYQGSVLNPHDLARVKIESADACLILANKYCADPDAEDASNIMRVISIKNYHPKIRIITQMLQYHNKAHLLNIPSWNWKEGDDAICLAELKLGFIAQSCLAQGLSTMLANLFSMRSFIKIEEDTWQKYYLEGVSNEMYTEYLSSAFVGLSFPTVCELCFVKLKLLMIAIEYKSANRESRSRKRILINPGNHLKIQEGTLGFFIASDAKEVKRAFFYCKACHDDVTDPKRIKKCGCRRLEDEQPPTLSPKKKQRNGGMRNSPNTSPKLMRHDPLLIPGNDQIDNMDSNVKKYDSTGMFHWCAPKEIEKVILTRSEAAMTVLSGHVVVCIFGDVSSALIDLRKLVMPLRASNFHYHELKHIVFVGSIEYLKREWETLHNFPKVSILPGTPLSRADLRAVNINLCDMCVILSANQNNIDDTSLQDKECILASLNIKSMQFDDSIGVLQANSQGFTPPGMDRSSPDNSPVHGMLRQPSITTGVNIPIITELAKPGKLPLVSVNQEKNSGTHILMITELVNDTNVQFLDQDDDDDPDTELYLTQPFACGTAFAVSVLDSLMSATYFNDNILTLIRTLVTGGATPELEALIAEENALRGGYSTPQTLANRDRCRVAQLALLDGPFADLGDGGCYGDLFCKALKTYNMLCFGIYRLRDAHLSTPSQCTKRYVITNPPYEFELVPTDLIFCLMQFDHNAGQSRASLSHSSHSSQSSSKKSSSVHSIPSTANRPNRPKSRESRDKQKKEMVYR
T2 sequence (Q62976 whole entry): as the sequence (Q62976 whole entry G803D/N806K) above, with D803G, K806N counted along it

## C=C(C)[C@H](CC=C(C)C)Cc1c(O)cc(OC)c2c1O[C@H](c1ccc(O)cc1O)CC2=O [kurarinone]
[1]; 5 μM final concentration, compared to vehicle (1% DMSO), among 794 natural compounds
  TI+ fluorescence increase in library screening: strongest fluorescence increase
[1]; 10 μM, n=4
  TI+-fluorescence enhancement (initial RFU increase): strong fluorescence increase
[1]; 3, 5, 10, 30 μM
  concentration dependence of TI+ fluorescence: increased in a dose-dependent manner
[2]; 0, 5, 10, 20 μM
  activation time-constant (τactivation): not significantly increased
[2]; 5 μM on the extracellular surface, outside-out patch, 3 μM intracellular Ca2+
  effect on tail-current: strongly potentiates the tail-current
[2]; [3]
  association time-constant, fast phase (τfast) of potentiation: 1.47 ± 0.34 s
  association time-constant, low-speed phase (τslow) of potentiation: 64.9 ± 8.8 s
[2]; 20 μM
  maximum conductance relative to vehicle control: 1.8 times
[2]; 20 μM vs vehicle
  shift of V1/2 in the negative direction: approximately 80 mV
[2]; 20 μM, 3 μM [Ca2+]i, vehicle 107.4±2.2 mV
  half-active voltage (V1/2) of G-V relationship: 27.7±3.0 mV
[2]; 20 μM, normalized to vehicle maximum
  maximum conductance (G/Gmax): 1.35
[2]; [4]
  dissociation time-constant, fast phase of de-potentiation: 2.78 ± 0.95 s
  dissociation time-constant, slow phase of de-potentiation: 90.06 ± 12.21 s
[2]; excised inside-out patch recording
  change in BKCa channel current on treatment from the inside of the cell: no significant change
[2]; increasing concentrations up to 20 μM, voltage-dependent
  deactivation rate: dramatically decreased
